# Like-named read-outs stand apart in the source and are kept apart here.
# Experiments:
# C. albicans [1] = experiment: Minimum Inhibitory Concentrations (MICs) against C. albicans, NCCLS M27-A broth dilution; assay type: cell-based; settings: Candida albicans, read-out: MIC
# Experimental: For each compound synthesized, Minimum Inhibitory Concentrations (MICs) against C. albicans were determined as described in Reference Method for Broth Dilution Antifungal Susceptibility Testing of Yeasts, Approved Standard, NCCLS document M27-A (ISBN 1-56238-328-0), NCCLS, 940 West Valley Road, Suite 1400, Wayne, Pa. 19087, 1997.
# C. albicans [2] = experiment: 5 day kidney bioburden evaluation in immunocompetent mice challenged with C. albicans; assay type: in vivo, Swiss-Webster mice; settings: for effective in % of mice: greater than 2 log10 reduction in kidney CFU
# Experimental: A variety of the compounds synthesized as described in Section 5, supra, were tested in various in vivo assays, as described below. The results of the various assays are provided in TABLE 3, presented at the end of this section. In all of the in vivo assays described, the test compounds, in the form of the aspartate salts, were formulated in an aqueous vehicle (5% mannitol in sterile water; OSMITROL, Baxter Healthcare, Deerfield, Ill.), followed by appropriate dilutions. The formulations were prepared fresh before dosing.
# AmB and AME were also tested for comparison. For AmB, the commercially available FUNGIZONE (Bristol-Meyers Squibb Co.) was used. Reported values are based upon the weight of the AmB active ingredient, not on the basis of the weight of the FUNGIZONE powder. AME was formulated in OSMITROL as described for the test compounds.
# Various polyene macrolide amide derivatives of the invention were evaluated for their protective effect when administered intraperitoneally once daily for 5 days to immunocompetent mice challenged with live C. albicans.
# C. albicans was grown on Sabouraud dextrose agar (SDA) plates for 48 hr. Colonies were harvested and washed twice by centrifugation in phosphate-buffered saline (PBS). The washed pellets were resuspended in PBS and diluted to achieve the desired number of fungi per milliliter. A portion of the inoculum was plated on SDA plates to determine the colony-forming units (CFU) per milliliter.
# Swiss-Webster mice (Simonsen Laboratories, Gilroy, Calif.) were administered by intravenous injection a single inoculum (0.2 mL) containing as estimated 2.0×10^5 CFU of C. albicans. The day of inoculation was designated as study day 0. Beginning three days after injection, mice were treated intraperitoneally with vehicle alone or formulated test compound once daily for 5 consecutive days.
# The mice were observed daily from study day 0 through study day 10 (3 days after the last dose). Mice found dead or euthanized in extremis were removed from the study without further processing. Surviving mice were euthanized by inhalation of CO2 on study day 10 and both kidneys from each mouse were removed. Each pair of removed kidneys was homogenized in 3 mL of ice-cold PBS containing 10% glycerol. A portion of each homogenate was used to determine log10 CFU per kidney using SDA plates (48 hours of incubation at 30° C.). Kidney log10 CFU data were analyzed using a t-test. The criterion for a statistically significant response was set at p<0.01.
# For comparison, the results for AmB and AME are also provided. Efficacy was defined for individual animals as a greater than 2 log10 reduction in kidney CFU relative to the mean vehicle control value.
smiles,measurement,setting,value
"C[C@@H]1[C@H](O)[C@@H](C)/C=C/C=C/C=C/C=C/C=C/C=C/C=C/[C@H](O[C@@H]2O[C@H](C)[C@@H](O)[C@H](N)[C@@H]2O)C[C@@H]2O[C@](O)(C[C@@H](O)C[C@@H](O)[C@H](O)CC[C@@H](O)C[C@@H](O)CC(=O)O[C@H]1C)C[C@H](O)[C@H]2C(=O)O [AMB, amphotericin B, reference compound]",MIC,C. albicans [1],0.125 to 0.25 µg/mL
same,effective in % of mice,C. albicans [2]; 2 mg/kg/day intraperitoneally,20%
same,effective in % of mice,C. albicans [2]; 4 mg/kg/day intraperitoneally,60%
same,effective in % of mice,C. albicans [2]; 8 mg/kg/day intraperitoneally,100%
same,effective in % of mice,C. albicans [2]; 16 mg/kg/day intraperitoneally,78%
same,ED50,"C. albicans [2]; Candida albicans, ip, 120 h, intraperitoneally once daily for 5 days, immunocompetent mice, C. albicans, 50% of animals with 2 log10 reduction in kidney CFU, read-out: ED50 mice 5 day",3 mg/kg
same,ED50,"C. albicans [2]; intraperitoneally, 5 day kidney bioburden model, calculated",3 mg/kg/day
